This note sets out measurements from article PMC5477036, “Design and synthesis of biphenyl and biphenyl ether inhibitors of sulfatases” (Chemical Science, 2016).

What all share (assay type): biochemical
The target in experiment [1] is T1, Sulf-2 (Homo sapiens, UniProt Q8IWU5).
T1 construct: host or cells: 293T cells, transiently transfected
Put plainly: Inhibition of Sulf-2-catalysed desulfation of 4-MUS to fluorescent MU. The conditions noted are these: for inhibition at 1000 µM: 1 mM compound, 4-MUS substrate, means of two or more determinations, read-out: Sulf-2% inh @ 1 mM; for IC50: non-linear regression, 7 inhibitor concentrations in duplicate, mean ± SEM. As for the experimental part: (§1) Compounds were assayed for their ability to inhibit the Sulf-2-catalysed desulfation of 4-methylumbelliferyl sulfate (4-MUS) to the fluorescent 4-methylumbelliferone (MU). To determine their sulfatase selectivity, inhibition of aryl sulfatases A (ARSA) and B (ARSB) was also assessed. To date no suitable benchmark inhibitors of these sulfatase have been reported. […] In the majority of cases the presence of a substituent on the B-ring was detrimental to Sulf-2 inhibition when compared with unsubstituted biphenyl sulfamate 76. Aminosulfates 54 and 62 and carboxylic acid 15 retained potency. […] Compounds 8, 10, 15, 50 and 51 were also relatively potent ARSA inhibitors. […] Aminosulfates 56 and 63 were the best Sulf-2 inhibitors lacking a trichloroethylsulfamate group.
1 – Biological assay protocols
Compounds were screened using 4-MUS as a substrate for Sulf-2 according to a protocol described by Morimoto-Tomita et al.1 Briefly 293T cells were transiently transfected with pcDNA3.1/Myc-His(-)-HSulf-2 DNA (Addgene) and TransIT-LT1 Transfection Reagent (Mirus) using a transfection mixture at the ratio 1:3 (µg DNA:
µL transfection reagent) in Opti-MEM I reduced serum medium (Gibco). Conditioned medium containing Sulf-2 was collected after 3 days and bound to HIS-Select Nickel affinity gel (Sigma) overnight at 4 °C. Beads were washed three times with washing buffer containing 50 mM HEPES (pH 7.5), 300 mM NaCl, 0.05% Tween 20, followed by washing once with washing buffer containing no tween. Beads were suspended in 50 mM Hepes (pH 7.5) and used in inhibition assays. 20 μL of bead slurry was incubated with 1 mM compound (in DMSO) plus 10X reaction buffer (500 mM HEPES pH 7.5, 100 mM CaCl2) for 1 h at 37 °C. The reaction was started by the addition of 20 μL of 20 mM 4-MUS (final concentration of 8 mM) and incubated at 37 °C for 1 h. The reaction was stopped with 100 μL 1 M Tris buffer (pH 10.4) and read at 460 nm following excitation at 355 nm in FLUOstar Omega plate reader (BMG Labtech) using Omega data analysis software. […]

Experiment [2] addresses T2, aryl sulfatase A (ARSA) (Homo sapiens, UniProt P15289).
T2 construct: purchased R & D Systems
T2 sequence (P15289 19-507): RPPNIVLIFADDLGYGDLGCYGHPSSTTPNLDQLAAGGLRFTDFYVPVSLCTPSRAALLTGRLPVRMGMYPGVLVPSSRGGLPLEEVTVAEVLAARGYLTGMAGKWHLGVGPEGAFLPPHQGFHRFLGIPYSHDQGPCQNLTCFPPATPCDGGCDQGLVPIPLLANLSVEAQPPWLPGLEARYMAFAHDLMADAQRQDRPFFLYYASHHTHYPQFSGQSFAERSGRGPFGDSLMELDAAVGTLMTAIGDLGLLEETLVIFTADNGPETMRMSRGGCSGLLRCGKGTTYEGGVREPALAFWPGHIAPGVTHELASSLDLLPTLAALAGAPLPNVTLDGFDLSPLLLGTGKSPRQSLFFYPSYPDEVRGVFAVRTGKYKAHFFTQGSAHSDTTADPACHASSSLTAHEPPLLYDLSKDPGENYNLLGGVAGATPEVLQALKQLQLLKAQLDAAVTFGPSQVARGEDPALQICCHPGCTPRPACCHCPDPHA
Put plainly: ARSA inhibition assay with 4-MUS substrate. The conditions noted are these: for inhibition at 1000 µM: 1 mM compound, 4-MUS substrate, means of two or more determinations, read-out: ARSA% inh @ 1 mM. As for the experimental part: as §1
(§2) 1 – Biological assay protocols […]
(§3) Omega data analysis software.
(§4) ARSA and ARSB assay protocols
(§5) Compounds were screened in a 96-well black plate (Sterilin) using 4-MUS as a substrate, using 50 μL reaction mixture containing 40 ng of the commercially available enzymes (ARSA or ARSB from R & D Systems), 50 mM HEPES (pH = 4.5), 10 mM CaCl2, 1 mM test compound (dissolved in DMSO; final concentration of DMSO in reaction = 2%), and H2O (45 μL). The assay mixture was incubated for 1 h at 37 °C, followed by addition of 5 μL of 4-MUS (Km = 1.6 mM for ARSA and 612 μM for ARSB), and incubation for a further 1 h at 37 °C. The reaction was stopped with 100 μL of 1 M Tris (pH = 10.5) and read at 460 nm following excitation at 355 nm in FLUOstar Omega plate reader (BMG Labtech) using Omega data analysis software.

In experiment [3] the target is T3, aryl sulfatase B (ARSB) (Homo sapiens, UniProt P15848).
T3 construct: purchased R & D Systems
T3 sequence (P15848 37-533, species assumed): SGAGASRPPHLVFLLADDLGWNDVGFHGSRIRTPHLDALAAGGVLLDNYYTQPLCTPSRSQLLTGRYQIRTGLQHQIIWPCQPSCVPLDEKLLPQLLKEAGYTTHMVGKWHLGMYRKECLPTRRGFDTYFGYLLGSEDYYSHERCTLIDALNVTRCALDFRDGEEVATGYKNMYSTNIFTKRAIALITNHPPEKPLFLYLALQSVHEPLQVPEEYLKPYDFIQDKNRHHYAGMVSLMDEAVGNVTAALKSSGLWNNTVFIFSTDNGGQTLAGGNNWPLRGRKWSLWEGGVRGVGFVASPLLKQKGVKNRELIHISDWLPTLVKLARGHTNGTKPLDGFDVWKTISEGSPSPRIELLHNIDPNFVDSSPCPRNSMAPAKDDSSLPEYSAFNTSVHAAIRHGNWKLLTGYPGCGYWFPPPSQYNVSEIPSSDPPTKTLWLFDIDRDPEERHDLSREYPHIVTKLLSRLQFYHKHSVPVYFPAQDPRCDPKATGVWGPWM
Put plainly: ARSB inhibition assay with 4-MUS substrate. To be noted: for inhibition at 1000 µM: 1 mM compound, 4-MUS substrate, means of two or more determinations, read-out: ARSB% inh @ 1 mM; for IC50: non-linear regression, 7 inhibitor concentrations in duplicate, mean ± SEM. Here is the method: as §1, §2, §3, §4, §5

T1 sequence (Q8IWU5 25-870): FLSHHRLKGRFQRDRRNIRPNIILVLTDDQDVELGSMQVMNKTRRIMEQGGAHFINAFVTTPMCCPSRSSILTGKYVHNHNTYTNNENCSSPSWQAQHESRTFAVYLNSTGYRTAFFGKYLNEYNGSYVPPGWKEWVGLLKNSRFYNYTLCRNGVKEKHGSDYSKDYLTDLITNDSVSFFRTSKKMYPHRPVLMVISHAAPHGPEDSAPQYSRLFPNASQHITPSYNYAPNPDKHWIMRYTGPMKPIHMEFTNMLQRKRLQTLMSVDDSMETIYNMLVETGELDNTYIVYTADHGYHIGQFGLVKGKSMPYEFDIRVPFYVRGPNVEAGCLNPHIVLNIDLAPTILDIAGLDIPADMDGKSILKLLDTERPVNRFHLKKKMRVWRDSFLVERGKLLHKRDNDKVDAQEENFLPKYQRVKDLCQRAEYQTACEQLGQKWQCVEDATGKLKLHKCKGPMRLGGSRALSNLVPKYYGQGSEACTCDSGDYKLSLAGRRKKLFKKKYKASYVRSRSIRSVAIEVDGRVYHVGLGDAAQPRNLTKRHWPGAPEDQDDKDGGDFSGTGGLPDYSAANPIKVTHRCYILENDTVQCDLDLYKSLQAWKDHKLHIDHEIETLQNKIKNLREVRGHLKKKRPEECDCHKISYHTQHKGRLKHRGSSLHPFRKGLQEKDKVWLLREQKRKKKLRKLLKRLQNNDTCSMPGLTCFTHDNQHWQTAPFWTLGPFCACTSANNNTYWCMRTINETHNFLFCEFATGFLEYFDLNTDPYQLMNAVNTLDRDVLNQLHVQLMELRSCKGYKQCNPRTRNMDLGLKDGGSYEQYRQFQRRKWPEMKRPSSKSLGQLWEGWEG

With `NS(=O)(=O)Oc1cccc(Oc2cccc(C(=O)O)c2)c1` [Compound 74], the inhibition at 1000 µM in experiment [1] was 30%; in experiment [2], 49%; in experiment [3], 0%.

As for `NS(=O)(=O)Oc1cccc(Oc2ccc(C(=O)O)cc2)c1` [Compound 75], the inhibition at 1000 µM amounted to 23% in experiment [1], 33% in experiment [2] and 0% in experiment [3].

On to `NS(=O)(=O)Oc1cccc(-c2ccccc2)c1` [Compound 76], for which the inhibition at 1000 µM in experiment [1] came to 38%; in experiment [2] it was 14%; in experiment [3], 65%.

In general, IC50 refers to the concentration that gives 50% inhibition. Low readings indicate greater potency in that assay, high ones weaker potency in that assay. Turning to `O=S(=O)(Nc1cccc(-c2ccccc2)c1)OCC(Cl)(Cl)Cl` [Compound 79], the inhibition at 1000 µM in experiment [1] was determined as 100%; in experiment [2], 0%; in experiment [3], 61%. Besides, the figures for the IC50 in experiment [1] and in experiment [3] were 254 ± 3 µM and 30 ± 11 µM, respectively. Moreover, in experiment [2] (non-linear regression, 7 inhibitor concentrations in duplicate, mean ± SEM), the “ARSA IC50” value was “No inhibition”.

As to `O=S(=O)(Nc1cccc(Oc2ccccc2)c1)OCC(Cl)(Cl)Cl` [Compound 80], the inhibition at 1000 µM was determined as 99% in experiment [1], 74% in experiment [2] and 99% in experiment [3]. Further, the values for the IC50 in experiment [1] and in experiment [3] were 298 ± 3 µM and 34 ± 9 µM, respectively. The “ARSA inhibition over concentration range” value in experiment [2] (concentration range 0.025–1 mM, IC50 could not be determined) is listed as “Concentration-dependent inhibition was not observed”.

For `O=S(=O)(OCC(Cl)(Cl)Cl)Oc1cccc(-c2ccccc2)c1` [Compound 81], the inhibition at 1000 µM in experiment [1] was found to be 1%; in experiment [2], 70%; in experiment [3], 85%.

As for `O=S(=O)(Nc1cccc(-c2ccccc2)c1)OCC(F)(F)F` [Compound 82], the inhibition at 1000 µM in experiment [1] stood at 5%; in experiment [2] it was 78%; in experiment [3] it was 92%.

For the compound `O=S(=O)(Nc1ccccc1)OCC(Cl)(Cl)Cl` [Compound 83], the inhibition at 1000 µM in experiment [1] stood at 3%; in experiment [2], 63%; in experiment [3], 68%.
